# According to patent US4316839A, “Imidazodiazepine derivatives” (Hoffman-La Roche Inc., priority 1979, dated 1982):
# Key:
# Schistosoma mansoni [1] = assay: in vitro schistosomicidal activity (motility of isolated worm pairs); format: cell-based; settings: 25 μg/ml alone
# Method: In order to test the in vitro activity of preparations, worm pairs of Schistosoma mansoni are isolated from mice and incubated at 37° C. in a nutrient medium. Test preparations are added in the form of a solution or as a suspension. The motility of the worms is observed under the microscope and registered during the test duration of 120 hours. A schistosomicidal activity of a test preparation manifests itself in the more or less rapid loss of motility of the worms. Control worms in the nutrient medium without the addition of test preparation maintain their normal motility during the entire test duration of 120 hours.
# (§1) The following representative compounds of formula I were tested in tests described earlier for possible detrimental effects on the schistosomicidal activity of (+)-5-(o-chlorophenyl)-1,3-dihydro-3-methyl-7-nitro-2H-1,4-benzodiazepin-2-one (compound S).
# Schistosoma mansoni [2] = assay: schistosomicidal activity in infected golden hamsters; format: in vivo; settings: Hamster; Compound S 75 mg/kg p.o. alone
# Method: (§2) Mice and golden hamsters are infected subcutaneously with 60 cercaria of Schistosoma mansoni. Ca 42 days after the infection, they are treated orally with a single dosage of the compound to be tested. 5 Animals are used per test preparation and dosage. 10 Untreated animals are used as controls. The animals are killed and dissected 2 weeks (hamster) or 3 weeks (mice) after the treatment. Worm pairs in mesenteric veins, portal vein and liver are dissected-out, counted and the condition of the worms (living or dead) is registered. A schistosomicidal activity of a test preparation manifests itself in the appearance of dead worms in the vessels of the liver. Dead worms are never found in untreated control animals. The test is evaluated by calculating the percentage of dead worm pairs in the vessels of the liver in infected, treated animals.
# as §1
# Schistosoma mansoni [3] = assay: schistosomicidal activity in infected mice; format: in vivo; settings: Mouse
# Method: as §2, §1
# [4] = biological target: specific benzodiazepine receptors in the cerebral cortex; assay: inhibition of the binding of tritiated diazepam at the specific benzodiazepine receptors in the cerebral cortex; settings: compounds of formula I with A = group (a)
# Method: The affinity of compounds of formula I to the central benzodiazepine receptors was determined according to the method described in Life Science 20, 2101-2110 (1977) and Science 198, 849-851 (1977). According to this method, the inhibition of the binding of tritiated diazepam at the specific benzodiazepine receptors in the cerebral cortex by test substances is ascertained. The IC50 ("50% inhibiting concentration") is that concentration of the test substance which brings about a 50 percent inhibition of the specific binding of the tritiated diazepam at the specific benzodiazepine receptors in the cerebral cortex.
# (§3) In the following Table there are compiled the results which have been obtained with representative compounds of formula I. The ED50 value is given for each compound listed in the Table. The ED50 is the amount of the test compound in mg/kg (p.o.) which counteracts in 50% of the animals the diazepam effect in the foregoing test. Moreover, the Table contains the IC50 value (defined hereinbefore) for all test compounds listed therein as well as details concerning the acute toxicity of certain compounds (LD50 in mg/kg following single oral administration to mice).
# [5] = test system: diazepam effect in the pentetrazole test; assay: pentetrazole test: antagonism of the diazepam effect in mice; format: in vivo; settings: Mus musculus, po; mice; diazepam 5 mg/kg i.p. 1 hour and test compound 15 min before pentetrazole 120 mg/kg i.p.
# Method: This property was used as a basis for the test described hereinafter which permits the determination of compounds which are capable of antagonising the central properties of 1,4-benzodiazepines which have tranquillising activity.
# The antagonistic activity of the compounds tested, i.e. their ability to counteract the activity of diazepam in the pentetrazole test, is determined by counting the mice which suffer spasmodic seizures in this test.
# as §3
# [6] = acute toxicity following single oral administration to mice; settings: mouse, in vivo
# Excerpt: as §3
# [7] = test system: central activities of flunitrazepam; assay: EEG of the dorsal hippocampus (theta rhythm) in conscious, curarised rats; antagonism of flunitrazepam; format: in vivo
# Method: Four tests were carried out on conscious, curarised, artifically respirated rats. The bipolar-derived EEG of the dorsal hippocampus served as the measured variable. 10 minutes after the beginning of the derivation flunitrazepam was administered intravenously in a dosage of 0.1 mg/kg. The test substance was likewise administered intravenously in a dosage of 1 mg/kg to one animal 10 minutes and to three animals 30 minutes after the administration of flunitrazepam. The EEGs obtained were analysed continuously in the frequency range according to the rules of the Fourier transformation, whereby each of the computed spectra related to 1 minute.
# The normal EEG from the hippocampus of conscious, curarised rats is characterised by a stable theta rhythm of 3.75-4.25 Hertz which remains unchanged at least 3 hours after the beginning of the artificial respiration. Flunitrazepam, in the given dosage, completely suppresses this theta rhythm for about 15 minutes. Thereafter, there appears a rhythm which is slowed down to 2.75-3.25 Hertz, which increases continuously and again attains the normal frequency of 4 Hertz 1 to 1.5 hours after the injection.
compound,measurement,setting,value
"CC1N=C(c2ccccc2Cl)c2cc([N+](=O)[O-])ccc2NC1=O (single isomer, unassigned; (+)) [Compound S, (+)-5-(o-chlorophenyl)-1,3-dihydro-3-methyl-7-nitro-2H-1,4-benzodiazepin-2-one]",Activity (in vitro),Schistosoma mansoni [1],a (worm pairs motionless within 15)
same,Schistosomicidal activity in %,Schistosoma mansoni [2],100%
same,Schistosomicidal activity in %,Schistosoma mansoni [3]; Compound S 75 mg/kg p.o. alone,99%
"CCOC(=O)c1ncn2c1CN(C)C(=O)c1cc(F)ccc1-2 [Example 1, ethyl 8-fluoro-5,6-dihydro-5-methyl-6-oxo-4H-imidazo[1,5-a][1,4]benzodiazepine-3-carboxylate]",IC50,[4],2.5 µM
same,ED50,[5],5.8 mg/kg
same,LD50,[6],> 5000 mg/kg
same,Schistosomicidal activity in %,Schistosoma mansoni [3]; 750 mg/kg p.o. alone,0%
"CCOC(=O)c1ncn2c1[C@@H]1CCCN1C(=O)c1ccccc1-2 [Example 30, ethyl (S)-11,12,13,13a-tetrahydro-9-oxo-9H-imidazo[1,5-a]pyrrolo[2,1-c][1,4]benzodiazepine-1-carboxylate]",IC50,[4],6.4 µM
same,ED50,[5],9.3 mg/kg
same,LD50,[6],1250 to 2500 mg/kg
same,theta rhythm frequency after test substance,"[7]; 1 mg/kg i.v., 10 or 30 min after flunitrazepam",4 Hertz
same,normalisation of theta rhythm,"[7]; 1 mg/kg i.v., 10 or 30 min after flunitrazepam 0.1 mg/kg i.v.","immediate, long-lasting normalisation of the described theta rhythm at 4 Hertz"
same,effect on theta rhythm,"[7]; 1 mg/kg i.v., 10 min after flunitrazepam","immediately brought about the rhythm suppressed by flunitrazepam, whereby this showed the normal frequency from the outset"
same,effect on theta rhythm,"[7]; 1 mg/kg i.v., 30 min after flunitrazepam","accelerated the already, but slowly, re-appearing rhythm immediately to its normal frequency of 4 Hertz"
same,antagonism of the central activities of flunitrazepam,"[7]; rats, overall finding","antagonises the central activities of the known 1,4-benzodiazepine derivative flunitrazepam"
"CN1C(=O)CN=C(c2ccccc2F)c2cc([N+](=O)[O-])ccc21 [flunitrazepam, reference compound]","complete suppression of theta rhythm, duration",[7]; flunitrazepam 0.1 mg/kg i.v.,about 15 minutes
same,frequency of slowed-down rhythm,"[7]; flunitrazepam 0.1 mg/kg i.v., after suppression phase",2.75-3.25 Hertz
same,time to again attain normal frequency of 4 Hertz,"[7]; flunitrazepam 0.1 mg/kg i.v., after the injection",1 to 1.5 h
